Experiments:
EP2 [1] = target: T1, EP2 (Homo sapiens, UniProt P43116); test: EP2 flipr functional assay; type: cell-based
Excerpt: (§1) U.S. Patent Application Publication No. 20070129552, incorporated by reference herein, describes the methods used to obtain the in vitro data in the table below.

EP2 [2] = target: T1, EP2; test: EP2 binding (Ki)
Excerpt: as §1

hDP = target: T2, hDP (Homo sapiens, UniProt Q13258); test: Other receptors functional assay, hDP; type: cell-based
T2 sequence (Q13258 1-359): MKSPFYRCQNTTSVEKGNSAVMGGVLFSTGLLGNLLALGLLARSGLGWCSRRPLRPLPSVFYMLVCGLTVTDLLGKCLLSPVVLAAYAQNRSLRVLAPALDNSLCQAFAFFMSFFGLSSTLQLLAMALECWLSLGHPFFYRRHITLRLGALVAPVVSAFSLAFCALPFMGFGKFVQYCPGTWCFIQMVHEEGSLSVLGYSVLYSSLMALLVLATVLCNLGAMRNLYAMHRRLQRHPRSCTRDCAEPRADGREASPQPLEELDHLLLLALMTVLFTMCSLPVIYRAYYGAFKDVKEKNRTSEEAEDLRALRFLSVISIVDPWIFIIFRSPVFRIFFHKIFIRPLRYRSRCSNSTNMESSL
Excerpt: as §1

EP4 [3] = target: T3, EP4 (Homo sapiens, UniProt P35408); test: EP4 binding (Ki)
Excerpt: as §1

hEP3A = target: T4, hEP3A (Homo sapiens, UniProt P43115); test: Other receptors functional assay, hEP3A; type: cell-based
T4 sequence (P43115 1-390): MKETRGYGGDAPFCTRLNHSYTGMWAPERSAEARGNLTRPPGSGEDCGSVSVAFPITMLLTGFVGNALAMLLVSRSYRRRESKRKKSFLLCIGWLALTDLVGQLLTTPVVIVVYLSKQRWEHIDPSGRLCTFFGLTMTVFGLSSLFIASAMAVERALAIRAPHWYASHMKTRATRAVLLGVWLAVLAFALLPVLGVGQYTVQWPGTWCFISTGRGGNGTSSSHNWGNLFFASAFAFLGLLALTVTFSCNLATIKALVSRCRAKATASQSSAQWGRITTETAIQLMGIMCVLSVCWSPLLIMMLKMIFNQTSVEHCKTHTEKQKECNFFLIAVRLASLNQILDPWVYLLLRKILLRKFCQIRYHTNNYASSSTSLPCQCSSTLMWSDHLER
Excerpt: as §1

normotensive dogs [4] = test: Intraocular pressure in normotensive dogs; type: in vivo, dog; conditions: 0.003%, once daily for 5 days, at 54 h
Procedure: (§2) U.S. Pat. No. 7,183,324 describes the methods used to obtain the in vitro results presented below.
(§3) Isopropyl 5-(3-((R)-3-(4-((S)-1-hydroxyhexyl)phenyl)-4-oxooxazolidin-2-yl)propyl)thiophene-2-carboxylate (12j) was tested in normotensive dogs at 0.003%, dosing once daily for 5 days. The maximum intraocular pressure (IOP) decrease from baseline was 5.4 mmHg (36%) at 54 h; the maximum ocular surface hyperemia (OSH) score was 1.75 at 50 h.

normotensive dogs [5] = test: Ocular surface hyperemia in normotensive dogs; type: in vivo, dog; conditions: 0.003%, once daily for 5 days, at 50 h
Procedure: as §2, §3

EP4 [6] = target: T3, EP4; test: EP4 flipr functional assay; type: cell-based
Excerpt: as §1

T1 sequence (P43116 whole entry): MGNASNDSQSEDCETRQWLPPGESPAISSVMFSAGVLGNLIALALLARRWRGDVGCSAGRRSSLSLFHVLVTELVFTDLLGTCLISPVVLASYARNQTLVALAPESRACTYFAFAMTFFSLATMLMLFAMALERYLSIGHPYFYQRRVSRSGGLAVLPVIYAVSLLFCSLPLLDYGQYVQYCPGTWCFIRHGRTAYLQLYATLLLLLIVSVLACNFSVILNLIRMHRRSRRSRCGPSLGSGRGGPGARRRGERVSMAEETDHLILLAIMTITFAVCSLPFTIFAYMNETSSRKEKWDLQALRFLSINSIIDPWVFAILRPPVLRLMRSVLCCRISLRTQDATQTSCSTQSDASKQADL
T3 sequence (P35408 whole entry): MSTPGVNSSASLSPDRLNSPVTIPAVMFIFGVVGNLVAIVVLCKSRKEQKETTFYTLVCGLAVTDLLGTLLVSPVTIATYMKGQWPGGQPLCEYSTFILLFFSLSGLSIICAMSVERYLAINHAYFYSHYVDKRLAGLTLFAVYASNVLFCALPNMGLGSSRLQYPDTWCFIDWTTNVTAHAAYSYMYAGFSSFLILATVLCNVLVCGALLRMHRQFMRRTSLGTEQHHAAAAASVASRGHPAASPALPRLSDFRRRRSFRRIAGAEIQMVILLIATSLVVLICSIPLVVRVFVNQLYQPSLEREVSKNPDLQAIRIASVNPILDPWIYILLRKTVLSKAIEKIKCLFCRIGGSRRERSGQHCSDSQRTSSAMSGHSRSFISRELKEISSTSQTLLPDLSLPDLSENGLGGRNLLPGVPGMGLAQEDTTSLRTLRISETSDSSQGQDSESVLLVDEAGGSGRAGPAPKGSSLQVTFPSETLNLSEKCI

`O=C(O)c1ccc(CCCC2OCC(=O)N2c2ccccc2)s1` (stereo not drawn) [Example 9, 5-(3-(4-oxo-3-phenyloxazolidin-2-yl)propyl)thiophene-2-carboxylic acid] gave an EC50 (EP2 [1]) of 3080 nM, a Ki (EP2 [2]) of 680 nM and an EC50 (hDP) of over 10000 nM. For the same compound, the Ki (EP4 [3]) was over 10000 nM.

`CCCCC[C@H](O)c1ccc(N2C(=O)CO[C@@H]2CCCc2ccc(C(=O)O)s2)cc1` (single isomer, unassigned) [Example 4] gave an EC50 (EP2 [1]) of 1.2 nM, a Ki (EP2 [2]) of 7 nM and an EC50 (hEP3A) of 4 nM. It also gave an EC50 (hDP) of 73 nM and a Ki (EP4 [3]) of over 10000 nM.

`CCCCC[C@H](O)c1ccc(N2C(=O)CO[C@H]2CCCc2ccc(C(=O)O)s2)cc1` (single isomer, unassigned) [Example 3] gave an EC50 (EP2 [1]) of 82 nM, a Ki (EP2 [2]) of 90 nM and an EC50 (hEP3A) of 268 nM. The EC50 (hDP) was 1970 nM and the Ki (EP4 [3]) was over 10000 nM.

In the case of `CCCCCC(O)c1ccc(N2C(=O)COC2CCCc2ccc(C(=O)O)s2)cc1` (stereo not drawn) [Example 2, 5-(3-(3-(4-(1-hydroxyhexyl)phenyl)-4-oxo-oxazolidin-2-yl)propyl)thiophene-2-carboxylic acid], the EC50 (EP2 [1]) is reported as 8 nM, the Ki (EP2 [2]) is reported as 14 nM and the EC50 (hEP3A) is reported as 11 nM. It also gave an EC50 (hDP) of 213 nM and a Ki (EP4 [3]) of over 10000 nM.

With `CCCCC[C@H](O)c1ccc(N2C(=O)CO[C@@H]2CCCc2ccc(C(=O)OC(C)C)s2)cc1` [Example 12j, Isopropyl 5-(3-((R)-3-(4-((S)-1-hydroxyhexyl)phenyl)-4-oxooxazolidin-2-yl)propyl)thiophene-2-carboxylate] the “maximum intraocular pressure (IOP) decrease from baseline” value (normotensive dogs [4]) was 5.4 mmHg, the “maximum intraocular pressure (IOP) decrease from baseline, percent” value (normotensive dogs [4]) was 36% and the “maximum ocular surface hyperemia (OSH) score” value (normotensive dogs [5]) was 1.75.

`CCCCCC(O)c1ccc(N2C(=O)CSC2CCCc2ccc(C(=O)O)s2)cc1` (stereo not drawn) [Example 1, 5-(3-(3-(4-(1-hydroxyhexyl)phenyl)-4-oxo-thiazolidin-2-yl)propyl)thiophene-2-carboxylic acid] showed an EC50 (EP2 [1]) of 4400 nM, a Ki (EP2 [2]) of 17500 nM and an EC50 (hEP3A) of 8320 nM. The EC50 (EP4 [6]) was over 10000 nM and the Ki (EP4 [3]) was 1460 nM.

For `CCCCCCc1ccc(N2C(=O)COC2CCCc2ccc(C(=O)O)s2)cc1` (stereo not drawn) [Example 8, 5-(3-(3-(4-hexylphenyl)-4-oxooxazolidin-2-yl)propyl)thiophene-2-carboxylic acid], the EC50 (EP2 [1]) was 37 nM, the Ki (EP2 [2]) was 3 nM and the EC50 (hEP3A) was 237 nM. For the same compound, the EC50 (EP4 [6]) was 12600 nM, the EC50 (hDP) was 656 nM and the Ki (EP4 [3]) was 2130 nM.
